These results are taken from PMC12810351, “Structure-effect relationship of phenolic compounds on α-amylase inhibition studied by isothermal titration calorimetry” (Current Research in Food Science, 2025).

Molecules are shown by their SMILES. Read-outs that look alike come from different tables or passages of the source. Where only a bound is given, the exact number is not on record here.

Test [1] has as its target α-amylase. Set-up: method as in Nyambe-Silavwe et al. (2015). The note with it: substrate amylose, amylopectin, DNS UV/Vis; ref Nyambe-Silavwe et al. (2015); cited from earlier work.
The target in test [2] is T1, porcine pancreatic α-amylase (Sus scrofa, UniProt P00690).
T1 sequence (P00690 16-511): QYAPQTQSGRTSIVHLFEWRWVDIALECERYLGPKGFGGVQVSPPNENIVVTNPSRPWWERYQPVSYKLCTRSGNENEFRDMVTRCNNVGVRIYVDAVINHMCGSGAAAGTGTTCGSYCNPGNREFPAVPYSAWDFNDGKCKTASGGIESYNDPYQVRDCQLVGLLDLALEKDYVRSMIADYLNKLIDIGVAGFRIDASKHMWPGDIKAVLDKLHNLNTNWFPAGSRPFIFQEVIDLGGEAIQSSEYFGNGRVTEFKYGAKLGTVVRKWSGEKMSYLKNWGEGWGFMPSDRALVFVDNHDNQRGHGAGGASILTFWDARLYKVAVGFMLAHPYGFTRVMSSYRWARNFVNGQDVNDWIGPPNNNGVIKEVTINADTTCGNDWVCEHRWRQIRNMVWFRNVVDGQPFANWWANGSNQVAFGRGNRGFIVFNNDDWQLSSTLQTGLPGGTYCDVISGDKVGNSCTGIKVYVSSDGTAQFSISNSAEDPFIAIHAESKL
Put plainly: starch hydrolysis by α-amylase monitored by isothermal titration calorimetry (ITC). Type of test: biochemical. To be noted: for remaining activity at 25 µM: 25 μM EGCG; for inhibition mechanism suggested by Kic/Kiu ratios: polyphenol standards. The method, then: The amylase stock solution was diluted each day and stored during the day at 4 °C.
The experiments were conducted using an Affinity ITC LV instrument with a cell volume of 182 μL (TA Instruments, Eschborn, Germany). […] These controls were conducted to determine the optimal injection volume to achieve maximal velocity (vmax) (S11). […] Enzyme kinetic constants were determined at 310 K.
The heat released during starch conversion was continuously monitored, with calculations performed using Microsoft Excel® software. The enzymatic rate (v) is directly proportional to the measured thermal power (eq (1)).(1) v=dP/dt=1/Vcell·ΔRHapp·dQ/dt
The reaction enthalpy ( ΔRHapp ) is determined by integrating the heat peak over its entire duration, divided by the number of substrate molecules converted:(2) ΔRHapp=∫t=0∞dQ/dtdt/nS
(dQ/dt)max [%], ΔRHapp [%] und vmax [%] are calculated in relation to daily control.
The substrate concentration at time t ([S]t) is calculated according to eq (3).(3) [S]t=∫t∞dQ/dtdt/∫0∞dQ/dtdt·[S]t=0
Therefore, the thermogram contains all the required data for calculating inhibition constants. The maximal conversion rate vmax and the Michaelis-Menten constant Km are determined from control experiments conducted in the absence of an inhibitor. In the presence of an inhibitor [I] the apparent values of vmaxapp and Kmapp are obtained. Competitive inhibition (Kic, eq (5)) is due to the formation of an enzyme-inhibitor complex (EI), whereas uncompetitive inhibition (Kiu, eq (5)) occurs when an inhibitor binds to a […]:(5) Kic=vmaxapp/Kmapp·[I]/(vmax/Km)−(vmaxapp/Kmapp)Kiu=vmaxapp·[I]/vmax−vmaxapp
The IC50 value, a key pharmacological metric, is used to compare the potency of inhibitors. […] The conversion rate (v0) was calculated from the thermogram according to eq (1), and subsequently plotted against the […]
(ITC needs no label: the signal is the heat of the interaction.)

Test [3] addresses α-amylase. Also noted: method as in Kaeswurm et al. (2019). To be noted: substrate GalG2CNP, CNP UV/Vis, ref Kaeswurm et al. (2019), cited from earlier work.
The target of test [4] is α-amylase. To be noted: substrate starch, DNS UV/Vis, cited from earlier work.
Test [5] deals with α-amylase. Also noted: method as in Narita and Inouye (2011). To be noted: substrate G2-pNP, pNP UV/Vis, ref Narita and Inouye (2011), cited from earlier work.
For test [6], the target named is α-amylase. Set-up: method as in Zheng et al. (2020). The note with it: substrate starch, D-glucose assay UV/Vis, ref Zheng et al. (2020), cited from earlier work.
Where [7] appears, read: calculated based on the mass concentration.
Where [8] appears, read: calculated based on the mass concentration, read-out: Kic [g/L] (converted).
The mark [9] stands for this setting: calculated based on the mass concentration, read-out: Kiu [g/L] (converted).
Where [10] appears, read: competitive inhibition constant, substrate starch, ITC, 100 μM polyphenol (EGCG 25 μM), read-out: Kic.
[11] abbreviates: substrate starch, ITC, calculated by eq (6), substrate concentration of 1 M (IC50 equivalent to Kiu), read-out: IC50*.
The mark [12] stands for this setting: uncompetitive inhibition constant, substrate starch, ITC, 100 μM polyphenol (EGCG 25 μM), read-out: Kiu.
[13] abbreviates: 100 μM polyphenol, relative to control, read-out: vmax [%].

As for `O=C(O[C@@H]1Cc2c(O)cc(O)cc2O[C@@H]1c1cc(O)c(O)c(O)c1)c1cc(O)c(O)c(O)c1` [EGCG, epigallocatechin gallate], the IC50 on α-amylase [1] is 5.3 to 60 µM; in test [2] (setting [11]), 25 ± 2 µM; on α-amylase [3], 58 µM. In addition, the remaining activity at 25 µM in test [2] (relative to control, read-out: (dQ/dt)max [%]) turned out to be 38 ± 4%; in test [2] (relative to control, read-out: vmax [%]) it was 49 ± 2%. In addition, the “reversibility of inhibition (from ΔRHapp)” value in test [2] (100 μM polyphenol (EGCG 25 μM)) is listed as “irreversible aggregation”. In test [2] (setting [7]), the “α (Kic/Kiu)” value is reported as 0.73 ± 0.01. For the same compound, the Ki in test [2] (setting [8]) is 21.8 µM; in test [2] (setting [9]) it was 21.8 µM; in test [2] (setting [10]), 19 ± 2 µM; in test [2] (setting [12]) it was 26 ± 2 µM; on α-amylase [3] (read-out: Kic), 124 µM; at α-amylase [3] (read-out: Kiu), 58 µM. Also, the “inhibition mechanism suggested by Kic/Kiu ratios” value in test [2] is given as “preferentially bind to the enzyme”. The inhibition type entry in test [2] (substrate starch, ITC) is given as “mixed”.

For the compound `O=C(/C=C/c1ccc(O)c(O)c1)O[C@@H]1C[C@](O)(C(=O)O)C[C@@H](O)[C@H]1O` [CA, Chlorogenic acid], the IC50 at α-amylase [4] (ref Souza Schmidt Gonçalves et al. (2010)) is 3.9 µM; in test [2] (calculated based on the mass concentration, read-out: IC50 [g/L] (converted)) it was 198 µM; in test [2] (setting [11]), 278 ± 100 µM; on α-amylase [5], 400 µM; on α-amylase [3], 413 µM. The remaining activity at 100 µM was 72 ± 6% in test [2] (setting [13]) and 77 ± 5% in test [2] (read-out: (dQ/dt)max [%]). Also, the “α (Kic/Kiu)” value in test [2] (setting [7]) is recorded as 0.70 ± 0.03. Further, the Ki in test [2] (setting [8]) is 198 µM; in test [2] (setting [9]), 282 µM; in test [2] (setting [10]), 195 ± 68 µM; in test [2] (setting [12]) it was 279 ± 100 µM; on α-amylase [5] (read-out: Kic) it was 1120 µM; on α-amylase [5] (read-out: Kiu) it was 270 µM. For the same compound, the results for the Ki at α-amylase [3] (read-out: Kic) and on α-amylase [3] (read-out: Kiu) were 406 µM and 413 µM, respectively. Besides, the “inhibition mechanism suggested by Kic/Kiu ratios” value in test [2] was “preferentially bind to the enzyme”. Besides, the inhibition type result in test [2] (substrate starch, ITC) was “mixed”.

As for `COc1cc(/C=C/C(=O)O)ccc1O` [FA, ferulic acid], the IC50 at α-amylase [4] (ref Aleixandre et al. (2022)) was more than 5150 µM; in test [2] (setting [11]) it was 2350 ± 1470 µM; on α-amylase [5], 5450 µM; on α-amylase [6], 3200 µM. Further, the remaining activity at 100 µM was found to be 94 ± 12% in test [2] (100 μM polyphenol, 26 nM α-amylase, starch, 310 K, relative to control without inhibitor, read-out: (dQ/dt)max [%]) and 95 ± 3% in test [2] (setting [13]). Moreover, the “α (Kic/Kiu)” value in test [2] (setting [7]) is recorded as 0.67 ± 0.30. In addition, the Ki is 1240 µM in test [2] (setting [8]); 2370 µM in test [2] (setting [9]); 1240 ± 235 µM in test [2] (setting [10]); 2360 ± 1480 µM in test [2] (setting [12]); 11200 µM on α-amylase [5] (read-out: Kic); 4870 µM on α-amylase [5] (read-out: Kiu). In addition, the Ki at α-amylase [6] (read-out: Kic) was 3400 µM; at α-amylase [6] (read-out: Kiu), 3630 µM. Further, in test [2] (substrate starch, ITC), the inhibition type result was “mixed”.
